The results in this text go back to patent US10550107B2, “Process for the preparation of N-[4-[(3-chloro-4-fluoro phenyl) amino]-7-[[(3s-tetrahydro-3-furanyl]oxy]-6-quinazolinyl]-4-(dimethyl amino)-(2E)-2-butenamide (2Z)-2-butenedioate (1:2) and its polymorphs thereof” (MSN LABORATORIES PRIVATE LIMITED, priority 2015, dated 2020).

The data set can be described thus: Polymorphic stability of crystalline Form-R. The class given is physicochemical. To be noted: at various conditions (not specified).

For `CN(C)C/C=C/C(=O)Nc1cc2c(Nc3ccc(F)c(Cl)c3)ncnc2cc1O[C@H]1CCOC1.O=C(O)/C=C\C(=O)O` [Form-R, N-[4-[(3-chloro-4-fluorophenyl)amino]-7-[[(3S)-tetrahydro-3-furanyl]oxy]-6-quinazolinyl]-4-(dimethylamino)-(2E)-2-butenamide (2Z)-2-butenedioate (1:2)], the “stability of the crystalline form / conversion to other crystalline forms” value is “stable at various conditions and does not convert to any of the other crystalline forms”.
